The target in series [1] is T1, IdmH (Streptomyces antibioticus, UniProt C5HV10).
T1 construct: full length (145 residues), N-terminal His6 tag with thrombin site (pET-28a), E. coli BL21(DE3); homodimer
Briefly: 1H-15N HSQC-TROSY chemical shift perturbation titration. Format: binding. Particulars: 0.2 mM 15N-labelled IdmH, 0-200 uM indanomycin; 20 mM Tris pH 7.3, 50 mM NaCl, 1 mM DTT, 25 C; proposed active-site pocket; proposed (not shown) reaction product.

Series [2] deals with the molecule itself. Briefly: SEC + other: LC/MS; oligomeric state of purified, tag-cleaved wild-type IdmH; conditions of this analysis not told in the text (Supplementary Fig. S4).

In general, stoichiometry N refers to the number of molecules, sites or subunits per partner or assembly.

With `CC/C(=C\C=C\[C@@H]1C=C[C@@H]2[C@@H](CC)CC[C@H]2[C@@H]1C(=O)c1ccc[nH]1)[C@@H]1O[C@@H]([C@@H](C)C(=O)O)CC[C@@H]1C` [compound 1, indanomycin], in series [1], the “1H-15N HSQC-TROSY chemical shift perturbation titration” value was “indanomycin can bind to IdmH in the proposed active site”.

B1: wild-type IdmH (full-length putative indane cyclase from the indanomycin NRPS/PKS pathway) (enzyme, UniProt C5HV10 1-145, looked up)
chain: MAHQPSDTIAGLYEAFNSGDLETLRELIAPDAVIHLPGTAGDAEHPPGTPRDREGWLGVWQFTQAFFPDMTATVQDIVQTGDLVATRCVARGTHSIEFMGVPPTGRPFEMTMLNMSRVRDGRIVEHWTISDNVTMLAQLGVKASL
notes: IdmH, Streptomyces antibioticus NRRL 8167, full-length idmH gene (ACN69984.1) amplified from genomic DNA; 145 amino acids as printed; Cloned in pET-28a at NdeI; residues of the thrombin site may remain at the N-terminus after cleavage (surmised); also called full-length IdmH; native IdmH; source: E. coli BL21(DE3), purified (HisTrap, thrombin cleavage, HiTrap Q, Superdex 75 SEC); not shown: His6, …
In the case of B1, in series [2], the “stoichiometry N” value was found to be 2.

For the origin of these results see publication PMC6830212, “Crystal structure of the putative cyclase IdmH from the indanomycin nonribosomal peptide synthase/polyketide synthase” (IUCrJ, 2019).
